What was measured:
P-Akt (S473) = assay: Cell based AlphaLISA assay, inhibition of P-Akt (S473) in MDA-MB-468 cells; conditions: Homo sapiens, 4 h, 0.017-1,000 nM, two to four hours at 37° C., AlphaLisa SureFire Ultra, read-out: pIC50 for Inhibition of mTORC1 and mTORC2 Substrate Phosphorylation, p-AKT1/2/3-(S473) (converted)
Method: (§1) Cell Based AlphaLISA Assays For Determining IC50 For Inhibition of P-Akt (S473), P-4E-BP1 (T37/46), and P-P70S6K (T389) in MDA-MB-468 Cells
(§2) mTOR Kinase Cellular Assay
(§3) To measure functional activity of mTORC1 and mTORC2 in cells the phosphorylation of 4EBP1 (Thr37/46) and P70S6K (Thr389), and AKT1/2/3 (Ser473) was monitored using AlphaLisa SureFire Ultra Kits (Perkin Elmer). […] Incubations are terminated by removal of the assay buffer and addition of lysis buffer provided with the assay kit. Samples are processed according to the manufacturer's instructions. The Alpha signal from the respective phosphoproteins is measured in duplicate using a microplate reader (Envision, Perkin-Elmer or Spectramax M5, Molecular Devices). Inhibitor concentration response curves are analyzed using normalized IC50 regression curve fitting with control based normalization.

P-4E-BP1 (T37/46) = assay: Cell based AlphaLISA assay, inhibition of P-4E-BP1 (T37/46) in MDA-MB-468 cells; conditions: Homo sapiens, 4 h, 0.017-1,000 nM, two to four hours at 37° C., AlphaLisa SureFire Ultra, read-out: pIC50 for Inhibition of mTORC1 and mTORC2 Substrate Phosphorylation, p-4E-BP1-(T37/46) (converted)
Method: as §1, §2, §3

P-P70S6K (T389) = assay: Cell based AlphaLISA assay, inhibition of P-P70S6K (T389) in MDA-MB-468 cells; conditions: Homo sapiens, 4 h, 0.017-1,000 nM, two to four hours at 37° C., AlphaLisa SureFire Ultra, read-out: pIC50 for Inhibition of mTORC1 and mTORC2 Substrate Phosphorylation, p-P70S6K-(T389) (converted)
Method: as §1, §2, §3

| Compound | IC50 (P-Akt (S473)) [nM] | IC50 (P-4E-BP1 (T37/46)) [nM] | IC50 (P-P70S6K (T389)) [nM] |
| --- | --- | --- | --- |
| CO[C@H]1C[C@@H]2CC[C@@H](C)[C@@](O)(O2)C(=O)C(=O)N2CCCC[C@H]2C(=O)O[C@H]([C@H](C)C[C@@H]2CC[C@@H](O)[C@H](OC)C2)C[C@@H](O)[C@H](C)/C=C(\C)[C@@H](O)[C@@H](OC)C(=NOc2cccc(C(=O)NCc3cnc(N4CCN(C(=O)CCOCCN5CCN(c6ncc(C(=O)N7CCc8cc(Cn9nc(-c%10ccc%11oc(N)nc%11c%10)c%10c(N)ncnc%109)ccc8C7)cn6)CC5)CC4)nc3)c2)[C@H](C)C[C@H](C)/C=C/C=C/C=C/1C [Example 35] | > 1000 | > 1000 | 10 to 1000 |
| CO[C@H]1C[C@@H]2CC[C@@H](C)[C@@](O)(O2)C(=O)C(=O)N2CCCC[C@H]2C(=O)O[C@H]([C@H](C)C[C@@H]2CC[C@@H](O)[C@H](OC)C2)C[C@@H](O)[C@H](C)/C=C(\C)[C@@H](O)[C@@H](OC)C(=NOCC(=O)NCc2cnc(N3CCN(C(=O)CCOCCN4CCN(C(=O)CN(C)CC(=O)N5CCc6cc(Cn7nc(-c8ccc9oc(N)nc9c8)c8c(N)ncnc87)ccc6C5)CC4)CC3)nc2)[C@H](C)C[C@H](C)/C=C/C=C/C=C/1C [Example 36] | > 1000 | 31.6 to 1000 | 1 to 10 |
| CO[C@H]1C[C@@H]2CC[C@@H](C)[C@@](O)(O2)C(=O)C(=O)N2CCCC[C@H]2C(=O)O[C@H]([C@H](C)C[C@@H]2CC[C@@H](O)[C@H](OC)C2)C[C@@H](O)[C@H](C)/C=C(\C)[C@@H](O)[C@@H](OC)C(=NOCC(=O)NCc2cnc(N3CCN(C(=O)CCCN4CCN(c5ncc(C(=O)NCCCCn6nc(-c7ccc8oc(N)nc8c7)c7c(N)ncnc76)cn5)CC4)CC3)nc2)[C@H](C)C[C@H](C)/C=C/C=C/C=C/1C [Example 37] | 3.16 to 31.6 | 3.16 to 31.6 | < 1 |
| CO[C@H]1C[C@@H]2CC[C@@H](C)[C@@](O)(O2)C(=O)C(=O)N2CCCC[C@H]2C(=O)O[C@H]([C@H](C)C[C@@H]2CC[C@@H](O)[C@H](OC)C2)C[C@@H](O)[C@H](C)/C=C(\C)[C@@H](O)[C@@H](OC)C(=NOCC(=O)NCc2cnc(N3CCN(C(=O)CCOCCN4CCN(c5ncc(C(=O)NCCOCCC(=O)N6CCc7cc(Cn8nc(-c9ccc%10oc(N)nc%10c9)c9c(N)ncnc98)ccc7C6)cn5)CC4)CC3)nc2)[C@H](C)C[C@H](C)/C=C/C=C/C=C/1C [Example 39] | > 1000 | 3.16 to 31.6 | 1 to 10 |
| CO[C@H]1C[C@@H]2CC[C@@H](C)[C@@](O)(O2)C(=O)C(=O)N2CCCC[C@H]2C(=O)O[C@H]([C@H](C)C[C@@H]2CC[C@@H](O)[C@H](OC)C2)C[C@@H](O)[C@H](C)/C=C(\C)[C@@H](O)[C@@H](OC)C(=NOCC(=O)NCc2cnc(N3CCN(C(=O)CCOCCN4CCN(CCOCCC(=O)N5CCc6cc(Cn7nc(-c8ccc9oc(N)nc9c8)c8c(N)ncnc87)ccc6C5)CC4)CC3)nc2)[C@H](C)C[C@H](C)/C=C/C=C/C=C/1C [Example 40] | > 1000 | 3.16 to 31.6 | 1 to 10 |
| CO[C@H]1C[C@@H]2CC[C@@H](C)[C@@](O)(O2)C(=O)C(=O)N2CCCC[C@H]2C(=O)O[C@H]([C@H](C)C[C@@H]2CC[C@@H](O)[C@H](OC)C2)C[C@@H](O)[C@H](C)/C=C(\C)[C@@H](O)[C@@H](OC)C(=NOCC(=O)NCCOCCC(=O)NCc2cnc(N3CCN(C(=O)CCOCCN4CCN(c5ncc(C(=O)NCCCCn6nc(-c7cnc8[nH]ccc8c7)c7c(N)ncnc76)cn5)CC4)CC3)nc2)[C@H](C)C[C@H](C)/C=C/C=C/C=C/1C [Example 42] | > 1000 | 3.16 to 31.6 | 1 to 10 |
| CO[C@H]1C[C@@H]2CC[C@@H](C)[C@@](O)(O2)C(=O)C(=O)N2CCCC[C@H]2C(=O)O[C@H]([C@H](C)C[C@@H]2CC[C@@H](O)[C@H](OC)C2)C[C@@H](O)[C@H](C)/C=C(\C)[C@@H](O)[C@@H](OC)C(=NOCC(=O)NCCOCCC(=O)NCc2cnc(N3CCN(C(=O)CCOCCN4CCN(c5ncc(C(=O)NCCCCn6nc(-c7ccc8oc(N)nc8c7)c7c(N)ncnc76)cn5)CC4)CC3)nc2)[C@H](C)C[C@H](C)/C=C/C=C/C=C/1C [Example 43] | 31.6 to 1000 | 3.16 to 31.6 | < 1 |
| CO[C@H]1C[C@@H]2CC[C@@H](C)[C@@](O)(O2)C(=O)C(=O)N2CCCC[C@H]2C(=O)O[C@H]([C@H](C)C[C@@H]2CC[C@@H](O)[C@H](OC)C2)C[C@@H](O)[C@H](C)/C=C(\C)[C@@H](O)[C@@H](OC)C(=NOCC(=O)NCCOCCC(=O)NCc2cnc(N3CCN(C(=O)CCOCCN4CCN(c5ncc(C(=O)N6CCc7cc(Cn8nc(-c9ccc%10oc(N)nc%10c9)c9c(N)ncnc98)ccc7C6)cn5)CC4)CC3)nc2)[C@H](C)C[C@H](C)/C=C/C=C/C=C/1C [Example 44] | 31.6 to 1000 | 3.16 to 31.6 | < 1 |
| CO[C@H]1C[C@@H]2CC[C@@H](C)[C@@](O)(O2)C(=O)C(=O)N2CCCC[C@H]2C(=O)O[C@H]([C@H](C)C[C@@H]2CC[C@@H](O)[C@H](OC)C2)C[C@@H](O)[C@H](C)/C=C(\C)[C@@H](O)[C@@H](OC)C(=NOCC(=O)NCCOCCOCCOCCOCCOCCOCCOCCOCCC(=O)NCCS(=O)(=O)c2ccc(C(=O)N3CCOc4ccc(-c5ccc(N)nc5)cc4C3)c(C)c2)[C@H](C)C[C@H](C)/C=C/C=C/C=C/1C [Example 45] | > 1000 | 3.16 to 31.6 | 1 to 10 |
| CO[C@H]1C[C@@H]2CC[C@@H](C)[C@@](O)(O2)C(=O)C(=O)N2CCCC[C@H]2C(=O)O[C@H]([C@H](C)C[C@@H]2CC[C@@H](O)[C@H](OC)C2)C[C@@H](O)[C@H](C)/C=C(\C)[C@@H](O)[C@@H](OC)C(=NOCC(=O)NCCOCCOCCOCCOCCOCCOCCOCCOCCC(=O)NCCS(=O)(=O)c2ccc(C(=O)N3CCOc4ccc(-c5ccc(N)nc5)cc4C3)c(C)c2F)[C@H](C)C[C@H](C)/C=C/C=C/C=C/1C [Example 46] | > 1000 | 3.16 to 31.6 | 1 to 10 |
| CO[C@H]1C[C@@H]2CC[C@@H](C)[C@@](O)(O2)C(=O)C(=O)N2CCCC[C@H]2C(=O)O[C@H]([C@H](C)C[C@@H]2CC[C@@H](O)[C@H](OC)C2)C[C@@H](O)[C@H](C)/C=C(\C)[C@@H](O)[C@@H](OC)C(=NOC(C)(C)C(=O)NCCOCCOCCOCCOCCOCCOCCC(=O)N2CCc3cc(Cn4nc(-c5ccc6oc(N)nc6c5)c5c(N)ncnc54)ccc3C2)[C@H](C)C[C@H](C)/C=C/C=C/C=C/1C [Example 48] | > 1000 | 3.16 to 31.6 | 10 to 1000 |
| CO[C@H]1C[C@@H]2CC[C@@H](C)[C@@](O)(O2)C(=O)C(=O)N2CCCC[C@H]2C(=O)O[C@H]([C@H](C)C[C@@H]2CC[C@@H](O)[C@H](OC)C2)C[C@@H](O)[C@H](C)/C=C(\C)[C@@H](O)[C@@H](OC)C(=NOCC(=O)NCc2cnc(N3CCN(c4ncc(C(=O)NCCOCCC(=O)N5CCc6cc(Cn7nc(-c8ccc9oc(N)nc9c8)c8c(N)ncnc87)ccc6C5)cn4)[C@H](CN(C)C)C3)nc2)[C@H](C)C[C@H](C)/C=C/C=C/C=C/1C [Example 49] | > 1000 | 3.16 to 31.6 | 1 to 10 |
| CO[C@H]1C[C@@H]2CC[C@@H](C)[C@@](O)(O2)C(=O)C(=O)N2CCCC[C@H]2C(=O)O[C@H]([C@H](C)C[C@@H]2CC[C@@H](O)[C@H](OC)C2)C[C@@H](O)[C@H](C)/C=C(\C)[C@@H](O)[C@@H](OC)C(=NOCC(=O)NCc2cnc(N3CCN(c4ncc(C(=O)NCCOCCC(=O)N5CCc6cc(Cn7nc(-c8ccc9oc(N)nc9c8)c8c(N)ncnc87)ccc6C5)c(N)n4)CC3)nc2)[C@H](C)C[C@H](C)/C=C/C=C/C=C/1C [Example 50] | > 1000 | > 1000 | 10 to 1000 |
| CO[C@H]1C[C@@H]2CC[C@@H](C)[C@@](O)(O2)C(=O)C(=O)N2CCCC[C@H]2C(=O)O[C@H]([C@H](C)C[C@@H]2CC[C@@H](O)[C@H](OC)C2)C[C@@H](O)[C@H](C)/C=C(\C)[C@@H](O)[C@@H](OC)C(=NOCC(=O)NCc2cnc(N3CCN(c4ncc(C(=O)NCCOCCC(=O)NCCCCn5nc(-c6ccc7oc(N)nc7c6)c6c(N)ncnc65)c(N)n4)CC3)nc2)[C@H](C)C[C@H](C)/C=C/C=C/C=C/1C [Example 51] | > 1000 | > 1000 | 10 to 1000 |
| CO[C@H]1C[C@@H]2CC[C@@H](C)[C@@](O)(O2)C(=O)C(=O)N2CCCC[C@H]2C(=O)O[C@H]([C@H](C)C[C@@H]2CC[C@@H](O)[C@H](OC)C2)C[C@@H](O)[C@H](C)/C=C(\C)[C@@H](O)[C@@H](OC)C(=NOCC(=O)NCc2cnc(N3CCC(N4CCC(C(=O)NCCOCCC(=O)N5CCc6cc(Cn7nc(-c8ccc9oc(N)nc9c8)c8c(N)ncnc87)ccc6C5)CC4)CC3)nc2)[C@H](C)C[C@H](C)/C=C/C=C/C=C/1C [Example 52] | > 1000 | 3.16 to 31.6 | 1 to 10 |

Source: patent publication US12187746B2, “C26-linked rapamycin analogs as mTOR inhibitors” (Revolution Medicines, Inc., priority 2018, dated 2025)
